From patent US12129246B1, “Hydroquinazoline derivatives for the treatment of a disease or disorder” (Novartis AG, priority 2023, dated 2024) come the findings set out here.

The target in one assay is T1, human NPR1 (Homo sapiens, UniProt P16066).
T1 construct: host or cells: CHO-K1
T1 sequence (P16066 33-1061): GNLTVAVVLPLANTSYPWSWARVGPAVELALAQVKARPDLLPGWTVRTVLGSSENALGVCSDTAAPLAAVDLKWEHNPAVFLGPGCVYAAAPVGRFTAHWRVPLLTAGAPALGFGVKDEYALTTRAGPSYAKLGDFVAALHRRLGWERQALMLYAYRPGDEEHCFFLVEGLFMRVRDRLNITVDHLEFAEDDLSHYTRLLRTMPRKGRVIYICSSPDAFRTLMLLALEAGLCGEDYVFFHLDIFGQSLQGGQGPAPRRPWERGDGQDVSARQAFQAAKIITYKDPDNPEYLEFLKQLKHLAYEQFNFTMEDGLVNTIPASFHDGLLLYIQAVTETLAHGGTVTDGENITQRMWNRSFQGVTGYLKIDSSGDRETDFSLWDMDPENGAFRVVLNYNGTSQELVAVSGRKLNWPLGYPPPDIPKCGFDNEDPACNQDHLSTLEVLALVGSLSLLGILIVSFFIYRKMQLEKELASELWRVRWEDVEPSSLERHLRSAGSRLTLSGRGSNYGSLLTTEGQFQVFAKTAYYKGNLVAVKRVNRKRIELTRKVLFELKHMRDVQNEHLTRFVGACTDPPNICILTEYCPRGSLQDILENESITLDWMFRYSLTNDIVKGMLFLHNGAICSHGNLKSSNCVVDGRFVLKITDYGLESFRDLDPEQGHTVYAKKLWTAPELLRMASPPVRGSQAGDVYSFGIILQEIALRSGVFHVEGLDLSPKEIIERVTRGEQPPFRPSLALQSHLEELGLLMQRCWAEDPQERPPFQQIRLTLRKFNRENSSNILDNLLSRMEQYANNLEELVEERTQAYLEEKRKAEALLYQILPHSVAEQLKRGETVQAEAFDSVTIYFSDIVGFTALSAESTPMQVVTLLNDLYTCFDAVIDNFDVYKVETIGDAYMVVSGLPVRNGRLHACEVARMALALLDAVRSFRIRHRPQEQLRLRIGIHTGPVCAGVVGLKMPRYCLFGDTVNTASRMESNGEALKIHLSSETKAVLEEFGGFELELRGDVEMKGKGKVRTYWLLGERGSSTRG
Briefly: Cellular cGMP production assay, human NPR1 expressing CHO-K1 cells (CisBio HTRF). The assay is classed as cell-based. The following applies: for AC50: cGMP production, 30 min at 37° C., 12-point dose-response from 30 μM; for Human NPR1 Amax (% of ANP): maximum cGMP production as percentage of the maximum cGMP produced with ANP. In outline: (§1)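 Read-out was HTRF (excitation 317 nm, emission 665 nm), with cGMP quantified as Delta F against a calibrator standard curve. Beforehand, cells were exposed for 30 min at 37 °C to compound (30 μM top, twelve 3-fold steps) in IBMX-containing PBS/BSA buffer, then lysed.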
Background: In TR-FRET formats the signal depends on donor and acceptor labels being close together.

For a further assay, the target named is monkey NPR1 (Macaca fascicularis, UniProt A0A7N9DBT9). Briefly: Cellular cGMP production assay, monkey NPR1 expressing CHO-K1 cells (CisBio HTRF). The assay is classed as cell-based. The following applies: for Monkey NPR1 Amax (% of ANP): maximum cGMP production as percentage of the maximum cGMP produced with ANP. Summed up:
as §1

The mark [1] stands for this setting: cGMP production, monkey NPR1 CHO-K1 cells, 30 min at 37° C., 12-point dose-response from 30 μM, read-out: Monkey NPR1 AC50.

Read-outs that look alike come from different tables or passages of the source.

monkey NPR1, sequence (A0A7N9DBT9 entry or part of it): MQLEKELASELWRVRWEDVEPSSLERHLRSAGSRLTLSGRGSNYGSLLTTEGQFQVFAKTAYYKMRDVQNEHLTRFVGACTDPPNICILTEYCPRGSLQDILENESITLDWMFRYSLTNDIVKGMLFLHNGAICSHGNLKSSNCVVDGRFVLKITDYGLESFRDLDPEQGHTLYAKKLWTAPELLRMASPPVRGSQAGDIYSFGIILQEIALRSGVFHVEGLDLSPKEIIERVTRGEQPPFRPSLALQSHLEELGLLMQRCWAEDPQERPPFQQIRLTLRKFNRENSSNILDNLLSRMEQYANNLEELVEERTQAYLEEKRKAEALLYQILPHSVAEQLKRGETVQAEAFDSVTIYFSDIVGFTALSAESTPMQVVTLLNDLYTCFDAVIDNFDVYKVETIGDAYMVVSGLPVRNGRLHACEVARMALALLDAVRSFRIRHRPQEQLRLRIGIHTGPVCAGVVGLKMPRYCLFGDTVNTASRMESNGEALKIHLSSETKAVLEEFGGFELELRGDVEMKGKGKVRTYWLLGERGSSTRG

As to `CC[C@@H](N(C)c1nc2c(c(N[C@@H](CN3C4CCCC3CC4)c3cnc(C)s3)n1)C[C@H](c1cccc(F)c1)CC2)C12CC(C(=O)O)(C1)C2` [Compound 77, 3-((1R)-1-(((6R)-4-(((1S)-2-(8-azabicyclo[3.2.1]octan-8-yl)-1-(2-methylthiazol-5-yl)ethyl)amino)-6-(3-fluorophenyl)-5,6,7,8-tetrahydroquinazolin-2-yl)(methyl)amino)propyl)bicyclo[1.1.1]pentane-1-carboxylic acid], the AC50 (commonly the midpoint of the concentration-response curve, whichever way the signal moves) on human NPR1 was 249 nM; at monkey NPR1 it was 134 nM. The “Human NPR1 Amax (% of ANP)” value at human NPR1 is 95.666 % of ANP. Further, at monkey NPR1 (monkey NPR1 CHO-K1 cells), the “Monkey NPR1 Amax (% of ANP)” value is reported as 96.715 % of ANP.
Turning to `CC[C@H]([C@H]1CC[C@H](C(=O)O)CC1)N(C)c1nc2c(c(N[C@@H](CN3CCC[C@H](C)C3)c3cnn(C)c3)n1)C[C@@H](c1ccccc1F)CC2` [Compound 141, (1R,4r)-4-((R)-1-(((S)-6-(2-fluorophenyl)-4-(((R)-1-(1-methyl-1H-pyrazol-4-yl)-2-((S)-3-methylpiperidin-1-yl)ethyl)amino)-5,6,7,8-tetrahydroquinazolin-2-yl)(methyl)amino)propyl)cyclohexane-1-carboxylic acid], on human NPR1, the concentration at half-maximal activity (AC50) worked out at 888 nM and the “Human NPR1 Amax (% of ANP)” value is recorded as 102.728 % of ANP. Moreover, the concentration at half-maximal activity (AC50) at monkey NPR1 (setting [1]) came out at 731 nM. Moreover, the “Monkey NPR1 Amax (% of ANP)” value on monkey NPR1 (monkey NPR1 CHO-K1 cells) is 105.798 % of ANP.
Regarding `CCC(N(C)c1nc2c(c(N[C@@H](CN3C4CCCC3CCC4)c3cnn(C)c3)n1)C[C@H](c1ccccc1)CC2)C12CC(C(=O)O)(C1)C2` (stereo partly drawn) [Compound 74, 3-(1-(((R)-4-(((R)-2-((1S,5S)-9-azabicyclo[3.3.1]nonan-9-yl)-1-(1-methyl-1H-pyrazol-4-yl)ethyl)amino)-6-phenyl-5,6,7,8-tetrahydroquinazolin-2-yl)(methyl)amino)-1l3-propyl)bicyclo[1.1.1]pentane-1-carboxylic acid], at human NPR1, the AC50 turned out to be 246 nM and the “Human NPR1 Amax (% of ANP)” value is recorded as 102.182 % of ANP. At monkey NPR1, this compound displayed a concentration at half-maximal activity (AC50) of 167 nM. Besides, the “Monkey NPR1 Amax (% of ANP)” value on monkey NPR1 (monkey NPR1 CHO-K1 cells) is given as 117.270 % of ANP.
Regarding `CC[C@H]([C@H]1CC[C@H](C(=O)O)CC1)N(C)c1nc2c(c(N[C@@H](CN3CCCC[C@H]3CO)c3cnn(CC)c3)n1)C[C@H](c1cccc(F)c1)CC2` [Compound 135, (1R,4r)-4-((R)-1-(((R)-4-(((R)-1-(1-ethyl-1H-pyrazol-4-yl)-2-((S)-2-(hydroxymethyl)piperidin-1-yl)ethyl)amino)-6-(3-fluorophenyl)-5,6,7,8-tetrahydroquinazolin-2-yl)(methyl)amino)propyl)cyclohexane-1-carboxylic acid], at human NPR1, the activity was half-maximal at 805 nM (AC50) and the “Human NPR1 Amax (% of ANP)” value is listed as 94.757 % of ANP. The half-maximal activity concentration (AC50) at monkey NPR1 (setting [1]) came out at 604 nM. In addition, at monkey NPR1 (monkey NPR1 CHO-K1 cells), the “Monkey NPR1 Amax (% of ANP)” value is 99.242 % of ANP.
`CC[C@H]([C@H]1CC[C@H](C(=O)O)CC1)N(C)c1nc2c(c(N[C@@H](CN3C4CCCC3CC4)c3ccnn3C)n1)C[C@H](c1cccc(F)c1)CC2` [Compound 164, (1R,4r)-4-((1R)-1-(((6R)-4-(((1S)-2-(8-azabicyclo[3.2.1]octan-8-yl)-1-(1-methyl-1H-pyrazol-5-yl)ethyl)amino)-6-(3-fluorophenyl)-5,6,7,8-tetrahydroquinazolin-2-yl)(methyl)amino)propyl)cyclohexane-1-carboxylic acid]: on human NPR1, half-maximal activity (AC50) was put at 1780 nM and the “Human NPR1 Amax (% of ANP)” value is recorded as 94.088 % of ANP. This compound showed an AC50 at monkey NPR1 of 946 nM. In addition, at monkey NPR1 (monkey NPR1 CHO-K1 cells), the “Monkey NPR1 Amax (% of ANP)” value was 92.193 % of ANP.
On to `CC[C@H](N(C)c1nc2c(c(N[C@@H](CN3CCC[C@@H](CF)C3)c3cnn(C)c3)n1)C[C@@](C)(c1ccccc1)CC2)C12CC(C(=O)O)(C1)C2` [Compound 36, 3-((S)-1-(((S)-4-(((R)-2-((R)-3-(fluoromethyl)piperidin-1-yl)-1-(1-methyl-1H-pyrazol-4-yl)ethyl)amino)-6-methyl-6-phenyl-5,6,7,8-tetrahydroquinazolin-2-yl)(methyl)amino)propyl)bicyclo[1.1.1]pentane-1-carboxylic acid], for which the results for the AC50 at human NPR1 and on monkey NPR1 (setting [1]) were 150 nM and 133 nM, respectively. Further, the “Human NPR1 Amax (% of ANP)” value on human NPR1 is on record as 101.036 % of ANP. The “Monkey NPR1 Amax (% of ANP)” value at monkey NPR1 (monkey NPR1 CHO-K1 cells) is 101.251 % of ANP.
On to `CC[C@@H](Nc1nc2c(c(N[C@@H](CN3C4CCCC3CC(O)C4)c3cnn(CC)c3)n1)C[C@H](c1cccc(F)c1)CC2)[C@H]1CC[C@H](C(=O)O)CC1` (stereo partly drawn) [Compound 117, (1R,4r)-4-((1R)-1-(((6R)-4-(((1R)-1-(1-ethyl-1H-pyrazol-4-yl)-2-((1R,5S)-3-hydroxy-9-azabicyclo[3.3.1]nonan-9-yl)ethyl)amino)-6-(3-fluorophenyl)-5,6,7,8-tetrahydroquinazolin-2-yl)amino)propyl)cyclohexane-1-carboxylic acid], for which, on human NPR1, the activity was half-maximal at 524 nM (AC50) and the “Human NPR1 Amax (% of ANP)” value is 100.635 % of ANP. Besides, half-maximal activity on monkey NPR1 (AC50) was put at 500 nM. Also, the “Monkey NPR1 Amax (% of ANP)” value on monkey NPR1 (monkey NPR1 CHO-K1 cells) is 109.499 % of ANP.
As to `CC[C@@H](N(C)c1nc2c(c(N[C@@H](CN3CCC[C@H](C)C3)c3cnn(CC)c3)n1)C[C@H](c1cccc(F)c1)CC2)C12CC(C(=O)O)(C1)C2` [Compound 13, 3-((R)-1-(((R)-4-(((R)-1-(1-ethyl-1H-pyrazol-4-yl)-2-((S)-3-methylpiperidin-1-yl)ethyl)amino)-6-(3-fluorophenyl)-5,6,7,8-tetrahydroquinazolin-2-yl)(methyl)amino)propyl)bicyclo[1.1.1]pentane-1-carboxylic acid], on human NPR1, half-maximal activity (AC50) was put at 94 nM and the “Human NPR1 Amax (% of ANP)” value is on record as 99.405 % of ANP. Moreover, at monkey NPR1 (setting [1]), the AC50 worked out at 64 nM. Further, the “Monkey NPR1 Amax (% of ANP)” value on monkey NPR1 (monkey NPR1 CHO-K1 cells) is recorded as 100.145 % of ANP.
For `CC[C@H]([C@H]1CC[C@H](C(=O)O)CC1)N(C)c1nc2c(c(N[C@@H](CN3CCCCC3)c3cnn(C)c3)n1)CN(c1cccc(F)c1)CC2` [Compound 157, (1R,4r)-4-((R)-1-((6-(3-fluorophenyl)-4-(((R)-1-(1-methyl-1H-pyrazol-4-yl)-2-(piperidin-1-yl)ethyl)amino)-5,6,7,8-tetrahydropyrido[4,3-d]pyrimidin-2-yl)(methyl)amino)propyl)cyclohexane-1-carboxylic acid], in that order: 1430 nM, 99.549 % of ANP, 999 nM and 105.667 % of ANP.
In the same order, the values of `CC[C@H]([C@H]1CC[C@H](C(=O)O)CC1)N(C)c1nc2c(c(N[C@@H](CN3CCC[C@H](C)C3)c3cnn(C)c3)n1)C[C@](C)(c1ccccc1)CC2` [Compound 7, (1R,4r)-4-((R)-1-(methyl((R)-6-methyl-4-(((R)-1-(1-methyl-1H-pyrazol-4-yl)-2-((S)-3-methylpiperidin-1-yl)ethyl)amino)-6-phenyl-5,6,7,8-tetrahydroquinazolin-2-yl)amino)propyl)cyclohexane-1-carboxylic acid] are 80 nM, 97.105 % of ANP, 50 nM and 102.341 % of ANP.
